Source: PMC7765930, “Antiproliferative Phenanthrenes from Juncus tenuis: Isolation and Diversity-Oriented Semisynthetic Modification” (Molecules, 2020)
Like-named read-outs stand apart in the source and are kept apart here.

Assays:
[1] = tested on: T-47D ductal carcinoma cell line; experiment: MTT antiproliferative assay, T47D; type: cell-based, human; conditions: 72 h, 100–0.19 μM, read-out: IC50 (µM) ± SD T47D
Protocol: Breast cancer cell line MCF-7 (ATCC® HTB-22) and the drug-resistant subline of the human breast cancer MCF-7 (ECACC 86012803; KCR) were purchased from LGC Promochem (Teddington, UK). Both cell lines were cultured in Eagle’s Minimal Essential Medium (EMEM, containing 4.5 g/L glucose) supplemented with a non-essential amino acid mixture, a selection of vitamins, and 10% heat-inactivated fetal bovine serum. In every third passage, 0.56 µg/mL doxorubicin was added to the medium, in order to maintain the ABCB1 (P-glycoprotein) expression in KCR cells. A2780 human ovarian cancer cell line (ECACC, European Collection of Authentical Cell Culture, Sigma Cat.no. 93112519) was purchased from Merck KGaA (Darmstadt, Germany). The cisplatin-resistant human ovarian cancer cell line A2780cis (ECACC European Collection of Authentical Cell Culture, Sigma Cat.no. 93112517) was purchased from Merck KGaA (Darmstadt, Germany). The human ovarian cancer cell lines were cultured in RPMI 1640 medium supplemented with 10% heat-inactivated fetal bovine serum. […] HeLa (ATCC® CCL-2™) human cervix carcinoma cell line was purchased from LGC Promochem (Teddington, UK). The cells were cultured in Eagle’s Minimal Essential Medium (EMEM, containing 4.5 g/L glucose) supplemented with a non-essential amino acid mixture, a selection of vitamins, and 10% heat-inactivated fetal bovine serum. MRC-5 human embryonal lung fibroblast cell line (ATCC® CCL-171) was purchased from LGC Promochem, Teddington, UK. The cell line was cultured in Eagle’s Minimal Essential Medium (EMEM, containing 4.5 g/L glucose) supplemented with a non-essential amino acid mixture, a selection of vitamins, and 10% heat-inactivated fetal bovine serum. HTB-26 breast adenocarcinoma cell line was purchased from LGC Promochem, Teddington, UK. The cell line was cultured in RPMI 1640 medium supplemented with 10% heat-inactivated fetal bovine serum. T-47D (ATCC® HTB-133™) ductal carcinoma cell line was purchased from LGC Promochem, Teddington, UK. The cells were cultured in RPMI 1640 medium supplemented with 10% heat-inactivated fetal bovine serum, 2 mM L-glutamine, 1 mM Na-pyruvate, and 100 mM Hepes. All of the cells were incubated at 37 °C, in a 5% CO2 and 95% air atmosphere.
The antiproliferative effect of the compounds was determined on human breast (MCF-7, KCR, T47D, and HTB-26), cervical (HeLa), and ovarian (A2780 and A2780cis) cancer cells, and on MRC-5 (human embryonic lung fibroblast) cell lines. The adherent cells were cultured in 96-well flat-bottomed microtiter plates, using EMEM supplemented with 10% heat-inactivated fetal bovine serum or RPMI 1640 supplemented with 10% heat-inactivated fetal bovine serum, respectively. The density of the cells was adjusted to 6 × 10^3 cells in 100 μL per well, the cells were seeded for 24 h at 37 °C, with 5% CO2, and then the medium was removed from the plates, and fresh medium (100 μL per well) was added to the cells. The effects of increasing concentrations of compounds on cell proliferation were tested in 96-well flat-bottomed microtiter plates. The compounds were diluted in the appropriate medium; the dilutions of compounds were performed in separate plates and then added to the cells. The starting concentration of the compounds was 100 μM, and two-fold serial dilution was performed (concentration range: 100–0.19 μM). The culture plates were incubated at 37 °C for 72 h; at the end of the incubation period, 20 μL of MTT (thiazolyl blue tetrazolium bromide, Sigma) solution (from a stock solution of 5 mg/mL) was added to each well. After incubation at 37 °C for 4 h, 100 μL of sodium dodecyl sulfate (SDS) (Sigma) solution (10% in 0.01 M HCI) was added to each well, and the plates were further incubated, at 37 °C, overnight. Cell growth was determined by measuring the optical density (OD) at 540/630 nm, with a Multiscan EX ELISA reader (Thermo Labsystems, Cheshire, WA, USA). […]

[2] = tested on: HeLa cells; parameters: method as in PMID 30127296, PMID 31005716; conditions: previously described, read-out: IC50, antiproliferative activity on HeLa cells; cited from earlier work
[3] = tested on: caspase-3; parameters: method as in PMID 31005716; conditions: cited from earlier work
[4] = tested on: G2/M and subG1 cell cycle phase; parameters: method as in PMID 31005716; conditions: even at lower concentrations; cited from earlier work
[5] = tested on: tubulin; parameters: method as in PMID 31005716; conditions: at 200 µM; cited from earlier work
[6] = tested on: normal skin fibroblasts CCD966SK; parameters: method as in PMID 31005716; conditions: even at higher concentrations; cited from earlier work

Structure (SMILES)	IC50 [1] [µM]	IC50 ([1]; Homo sapiens, T47D) [µM]	other results
N.N.[Cl][Pt][Cl] [Cisplatin, cisplatin, reference compound]	5.9 ± 0.1	–	–
C=CC1=C(C)C(=O)C=C2CCC3=C(C=CC(=O)C3(C)OC)C21OC (stereo not drawn) [Compound 1b]	–	36.5 ± 1	–
C=CC1=C(C)C(=O)C=C2CCC3=C(C=CC(=O)C3(C)OCC)C21OCC (stereo not drawn) [Compound 2a]	–	56.3 ± 3.4	–
C=CC1=C(C)C(=O)C=C2CCC3=C(C=CC(=O)C3(C)OCC)C21OCC (stereo not drawn) [Compound 2b]	30.3 ± 2.5	–	–
C=CC1=CC(=O)C=C2CCC3=C(C=CC(=O)C3(C)OC)C12OC (stereo not drawn) [Compound 3]	–	7 ± 1	–
C=CC1=CC(=O)C=C2CCC3=C(C=CC(=O)C3(C)OCC)C12OCC (stereo not drawn) [Compound 4a]	–	11.6 ± 0.3	–
C=CC1=CC(=O)C=C2CCC3=C(C=CC(=O)C3(C)OCC)C12OCC (stereo not drawn) [Compound 4b]	14.2 ± 0.6	–	–
C=Cc1cc(O)cc2c1-c1ccc(O)c(C)c1CC2 [effusol]	–	24.6 ± 1.9	IC50 [2]: 3.68 µM
C=Cc1c(C)c(O)cc2c1-c1ccc(O)c(C)c1CC2 [juncusol]	–	25 ± 0.4	caspase-3 activity [3]: significant and concentration-dependent increase; number of cells in the G2/M and subG1 cell cycle phase [4]: increased; IC50 [2]: 0.95 µM; tubulin polymerization [5]: decreased; toxicity on normal skin fibroblasts CCD966SK [6]: nontoxic
